Source: PMC9143004, “Antioxidant Properties and Aldehyde Reactivity of PD-L1 Targeted Aryl-Pyrazolone Anticancer Agents” (Molecules, 2022)
Several values for one entry are separate records, joined by “and”; a condition that tells them apart may be missing. Identical values can stand only once. Like-named read-outs stand apart in the source and are kept apart here.

Experiments:
CTLL-2 cells = assay: Reactivation of proliferation of CTLL-2 cells; format: cell-based; settings: read-out: Proliferation (IC50): capacity to reactivate proliferation of CTLL-2 cells
recombinant human PD-L1 = recombinant human PD-L1 (Homo sapiens, UniProt Q9NZQ7); assay: PD-L1 binding by microscale thermophoresis (MST); settings: for Kd: affinity for PD-L1 measured by MST
recombinant human PD-L1, sequence (Q9NZQ7 19-290): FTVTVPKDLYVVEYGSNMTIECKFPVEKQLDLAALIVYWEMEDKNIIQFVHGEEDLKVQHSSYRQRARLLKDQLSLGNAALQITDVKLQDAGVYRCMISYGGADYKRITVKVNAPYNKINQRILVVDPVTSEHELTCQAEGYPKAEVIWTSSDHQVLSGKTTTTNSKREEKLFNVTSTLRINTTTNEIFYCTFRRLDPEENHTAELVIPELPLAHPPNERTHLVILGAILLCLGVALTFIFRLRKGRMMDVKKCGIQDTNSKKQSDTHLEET

PD-L1/PD-1 interaction = PD-L1/PD-1 interaction (Homo sapiens, UniProt Q9NZQ7); assay: Disruption of the PD-L1/PD-1 interaction in cells, FRET assay; format: cell-based; settings: read-out: Bioactivity (IC50): capacity to disrupt the PD-L1/PD-1 interaction in cells
PD-L1/PD-1 interaction, sequence (Q9NZQ7 19-290): as above

[1] = DPPH free radical scavenging EPR assay; settings: read-out: DPPH EC50 (concentration reducing the EPR signal by 50%); DPPH 100 μM; test compound 2–90 μM
Procedure: The antioxidant activity of the compounds was characterized for their free radical scavenging activities using DPPH (100 μM), chosen as a model radical. In this case, we monitor the decay in the DPPH EPR signal intensity which occurs when EPR-silent diamagnetic hydrazine counterparts are formed from DPPH. The first line DPPH signal intensity is then recorded in the presence of increasing amount of the test compound (2–90 μM). Representative dose-dependent variations of the EPR signal are shown in Figure 2a, for compounds EDA, 2 and 4. They all show the characteristic five-line EPR spectrum of DPPH, due to the hyperfine coupling with two equivalent nitrogens, and for which the intensity is proportional to the DPPH concentration, and its decay in the presence of an antioxidant. […] From these curves, the intensity of the EPR signal can be measured and its decay quantified (Figure 2b).
For each compound, the percentage of inhibition of the EPR signal was plotted as a function of the compound concentration, and the fitted curves used to determine EC50 values. The same procedure has been used to evaluate various types of antioxidant compounds [29]. […] In this test, the compounds rank in the order EDA, 2, 3 > 5 > 1 > 4.
(§1) CW-EPR experiments were performed with an X-band Bruker Elexsys E500 spectrometer (Bruker BioSpin GmbH, Rheinstetten, Germany) operating at 9.86 GHz. CW spectra were recorded at room temperature with a microwave power of 5.024–10.02 mW and a modulation amplitude of 1–2 G that assumes non-saturation conditions. The antioxidant activity was monitored using DPPH (1,1-diphenyl-2-picrylhydrazyl) at a final concentration of 100 µM as free radical scavenging molecule and DMPO (5,5-dimethyl-1-pyrroline N-oxide) as spin trap agent for the spin trapping experiments. The DMPO solution was freshly distillated prior to use at a final concentration of 1 mM or 2 mM. The solution mixture was filled into a glass capillary of 50 μL, which was in turn, placed in 4 mm quartz EPR tubes prior to analysis.
(§2) The percent inhibition of DPPH was calculated according to the following equation: I (%) = ((I0 − I)/I0) ∗ 100 where I0 is the area of the EPR spectrum of DPPH (control sample), and I is the area of the EPR spectrum of DPPH with antioxidant compound. The rate constant for the reaction of antioxidant compounds with ^•OCH3 is expressed by the following equation: 1/Ra = 1/Rf + (kr [AH]/(ka [DMPO] × Rf). Rf, and Ra indicate EPR signal area (double integration of EPR signal) of ^•OCH3, DMPO/^•OCH3, respectively. ka and [DMPO] are constants, and a plot of 1/Ra vs. [AH] (concentration of antioxidant compound) gives a straight line with 1/Rf as an intercept and kr/(ka[DMPO] Rf) as the slope. In these circumstances, the rate constant for the reaction of ^•OCH3 with antioxidant compounds (kr) can be expressed by the following equation: kr = (ka [DMPO] × slope)/interception.

[2] = DMPO spin-trapping EPR assay under Fenton conditions in methanol; settings: DMPO 1 or 2 mM, •OCH3 radical
Procedure: In this case, we monitor the formation of an oxygen centered radical generated in the presence of the spin trapping agent DMPO under Fenton conditions (hydrogen peroxide plus ferrous ions). For practical reasons (compound solubility), experiments were carried out using methanol as a solvent and therefore, the methoxy radical is monitored. A typical six-line EPR signal is recorded, corresponding to the DMPO/^•OCH3 radical, with the characteristic hyperfine coupling constants aN = 13.9 G and aH = 8.3 G. Here again, we can measure the decay of the EPR signal in the presence of the different antioxidant compounds and compare their relative capacity to reduce the signal. Typical concentration-dependent response curves are presented in Figure 3a for compounds EDA, 2 and 4. All six compounds can induce a decrease of the EPR signal but with various degrees of efficacy (Figure 3b). Here again, the results were quantified through the measure of the area of the EPR signal as a function of the compound concentration, to allow the calculation of the reaction constants for each compound. […] Proper dose-response curves were constructed and fitted to determine the reaction rate constant (kr) for each compound, as shown in Figure 3c and the kr values are collated in Table 2.
as §1, §2

[3] = Solubility in the aqueous reaction medium; format: physicochemical; settings: methanol:ammonium formate buffer 5 mM pH 4.5 (40:60)
Procedure: To begin with, each compound was incubated with an equimolar amount of 5fU for 180 min at 37 °C in a mixture of methanol and ammonium formate buffer 5 mM, pH 4.5 (40:60, v:v). […] In each case, the reaction mixture was introduced into the mass spectrometry equipment after a dilution in methanol to achieve a final concentration of 10 pmol/µL. The formation of drug-uracil adducts was monitored and unambiguously characterized by HRMS. […] There was no solubility issue with compound. The lack of reactivity is attributable to its adamantane unit which deactivates the adjacent reactive position or produces a steric hindrance. Otherwise, the other four compounds can react easily with 5fU to generate mono- and bis-adducts, as represented in Figure 4 with compound 2. In all cases, the observed molar mass and ring double bound value (RDB) value for the different species coincide perfectly with the expected mass (Δppm < 5 ppm) and RDB value (Table 3).

| Kd (recombinant human PD-L1) | IC50 (PD-L1/PD-1 interaction) | EC50 [1] | Solubility in the aqueous medium [3] | Activity toward PD-L1 (recombinant human PD-L1; statement in the discussion) | Compound | IC50 (CTLL-2 cells; CTLL-2 cells) | IC50 (CTLL-2 cells; Mus musculus, CTLL-2) | DMPO kr (reaction rate constant) [2] |
| --- | --- | --- | --- | --- | --- | --- | --- | --- |
|  |  |  |  |  | COc1nc(OCc2cccc(-c3ccccc3)c2C)ccc1CNCCNC(C)=O [BMS-202, reference compound] | 53 ± 17 nM |  |  |
| 77 ± 7 nM | 92 ± 9 nM | 70600 nM |  |  | CC1=NN(c2ccccn2)C(=O)C1 [Compound 1] |  | 102 ± 8 nM | 1.27 10^11 M^−1 s^−1 |
| 34 ± 3 nM | 23 ± 3 nM | 36500 nM |  |  | CC1=NN(c2ccc(Cl)cc2Cl)C(=O)C1 [Compound 2] |  | 53 ± 11 nM | 1.93 10^11 M^−1 s^−1 |
|  |  | 34000 nM |  |  | COc1ccccc1C1=NN(c2ccc(Cl)cc2Cl)C(=O)C1 [Compound 3] |  | 79 ± 7 nM | 1.88 10^11 M^−1 s^−1 |
| 7 ± 3 nM | 3 ± 2 nM | 97000 nM and 97600 nM | limited solubility |  | O=C1CC(c2ccc(Cl)cc2)=NN1c1ccc(Cl)cc1Cl [Compound 4] |  | 124 ± 7 nM | 1.04 10^11 M^−1 s^−1 |
| 12 ± 2 nM | 23 ± 6 nM | 59700 nM |  |  | O=C1CC(C23CC4CC(CC(C4)C2)C3)=NN1c1ccccc1Cl [Compound 5] |  | 57 ± 9 nM | 1.25 10^11 M^−1 s^−1 |
|  |  | 35800 nM |  | totally inactive | CC1=NN(c2ccccc2)C(=O)C1 [EDA, 1-phenyl-3-methyl-5-pyrazolone, reference compound] |  |  | 2.59 10^11 M^−1 s^−1 |
|  |  |  |  |  | Nivolumab: reference listed in Table 1; the paper does not describe it further | 58 ± 3 nM |  |  |
